Experimental data from patent US10856562B2, “Flavor composition and edible compositions containing same” (MARS, INCORPORATED, priority 2013, dated 2020).
Square brackets hold non-standard residues; d marks the D form. Ends that are not written are not given here. pGlu = O=C1CC[C@@H](C(=O)O)N1

Test system: panelists
Assay: Attribute perception scores of flavor enhancers in solution (Example 6)
Format: in vivo, human
Parameters: key to Metallic / Numbing / Atringent / Salt / Sweet / Sour / Bitter / Umami / Sour, mean evaluation score in solution / Numbing, mean evaluation score in solution / Astringent / Umami FF: 15-point intensity scale, 0 = none, 15 = very strong
Details: for Astringent / Bitter / Flinty/Mineral / Metallic / Numbing / Salt / Sour / Sweet / Umami / Umami FF / Atringent / Mineral/Flinty / Umami/brothy: solution
Protocol: Descriptive attributes (e.g., taste, flavor and chemical feeling factors) of three use levels of pGlu-Cys (FE-35), pGlu-Cys-Gly (FE-36), pGlu-Cys-Cys (FE-37), pGlu-Cys-Val (FE-38) and pGlu-Val-Cys (UE-30) flavor composition peptides were determined. The three use levels were as follows: 1.0 ppb, 10.0 ppb and 100.0 ppb.
Data was collected for the attributes of the product in-mouth for the use levels according to the following protocol: • The samples were analyzed for flavor by six to nine members of a panel, trained and experienced in flavor evaluation using the Spectrum™ method. Samples were evaluated across multiple panel sessions. • The strength of each attribute was rated on a 15-point scale, where 0=none and 15=very strong. • This scale incorporates the ability to use tenths of a point and therefore has the potential of 150 scale differentiations. • The scale may be expanded beyond 15 points to include extreme ratings if necessary.
A summary of the concentrations of NaCl, water and flavor composition peptides in the solution samples is described in table 24.
The panelists evaluated each sample for the attributes described by table 25.

[1] = 10.0 ppb, mean evaluation score
[2] = 100.0 ppb, mean evaluation score
[3] = Concentration 1, MAX, 15-point scale
[4] = Concentration 1, MEAN, 15-point scale
[5] = Concentration 1, MIN, 15-point scale
[6] = Concentration 10, MAX, 15-point scale
[7] = Concentration 10, MEAN, 15-point scale
[8] = Concentration 10, MIN, 15-point scale
[9] = Concentration 100, MAX, 15-point scale
[10] = Concentration 100, MEAN, 15-point scale
[11] = Concentration 100, MIN, 15-point scale

## [pGlu]-Cys [FE-35]
1.0 to 100 ppb
  Mineral/Flinty aromatic in solution as the concentration increases: show no distinct pattern
  Salt perception level in solution as the concentration increases: show no distinct pattern
  Umami aromatic in solution as the concentration increases: decreases slightly
  Umami feeling factor in solution as the concentration increases: shows no distinct pattern
1.0 ppb, mean evaluation score
  Astringent: 0.0
  Bitter: 0.1
  Flinty/Mineral: 0.9
  Metallic: 0.0
  Numbing: 0.0
  Salt: 1.8
  Sour: 0.0
  Sweet: 0.3
  Umami: 1.5
  Umami FF: 1.5
[1]
  Astringent: 0.0
  Bitter: 0.0
  Flinty/Mineral: 0.9
  Metallic: 0.3
  Numbing: 0.0
  Salt: 2.6
  Sour: 0.0
  Sweet: 0.3
  Umami: 0.8
  Umami FF: 1.1
[2]
  Astringent: 0.0
  Bitter: 0.0
  Flinty/Mineral: 0.7
  Metallic: 0.3
  Numbing: 0.0
  Salt: 2.0
  Sour: 0.0
  Sweet: 0.2
  Umami: 0.2
  Umami FF: 1.1
[3]
  Atringent: 0.0
  Bitter: 0.5
  Metallic: 0.0
  Mineral/Flinty: 1.0
  Numbing: 0.0
  Salt: 2.0
  Sour: 0.0
  Sweet: 1.0
  Umami: 2.0
  Umami/brothy: 2.0
[4]
  Atringent: 0.0
  Bitter: 0.1
  Metallic: 0.0
  Mineral/Flinty: 0.9
  Numbing: 0.0
  Salt: 1.8
  Sour: 0.0
  Sweet: 0.3
  Umami: 1.5
  Umami/brothy: 1.5
[5]
  Atringent: 0.0
  Bitter: 0.0
  Metallic: 0.0
  Mineral/Flinty: 0.5
  Numbing: 0.0
  Salt: 1.5
  Sour: 0.0
  Sweet: 0.0
  Umami: 1.0
  Umami/brothy: 1.0
[6]
  Atringent: 0.0
  Bitter: 0.0
  Metallic: 2.0
  Mineral/Flinty: 1.2
  Numbing: 0.0
  Salt: 3.0
  Sour: 0.0
  Sweet: 1.0
  Umami: 2.0
  Umami/brothy: 2.0
[7]
  Atringent: 0.0
  Bitter: 0.0
  Metallic: 0.3
  Mineral/Flinty: 0.9
  Numbing: 0.0
  Salt: 2.6
  Sour: 0.0
  Sweet: 0.3
  Umami: 1.1
  Umami/brothy: 0.8
[8]
  Atringent: 0.0
  Bitter: 0.0
  Metallic: 0.0
  Mineral/Flinty: 0.0
  Numbing: 0.0
  Salt: 2.2
  Sour: 0.0
  Sweet: 0.0
  Umami: 0.0
  Umami/brothy: 0.0
[9]
  Atringent: 0.0
  Bitter: 0.0
  Metallic: 1.0
  Mineral/Flinty: 1.5
  Numbing: 0.0
  Salt: 2.5
  Sour: 0.0
  Sweet: 1.0
  Umami: 1.5
  Umami/brothy: 1.0
[10]
  Atringent: 0.0
  Bitter: 0.0
  Metallic: 0.3
  Mineral/Flinty: 0.7
  Numbing: 0.0
  Salt: 2.0
  Sour: 0.0
  Sweet: 0.2
  Umami: 1.1
  Umami/brothy: 0.2
[11]
  Atringent: 0.0
  Bitter: 0.0
  Metallic: 0.0
  Mineral/Flinty: 0.0
  Numbing: 0.0
  Salt: 1.5
  Sour: 0.0
  Sweet: 0.0
  Umami: 0.0
  Umami/brothy: 0.0
